From patent publication US4510136A (priority 1983, dated 1985)

Assays:
[1] = system: Puccinia recondita var. tritici; test: Wheat leaf rust control on sprayed wheat seedlings (Example 79); type: in vivo; conditions: Puccinia recondita, 168 h; 100 ppm spray, day before inoculation
In short: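 Disease was scored as leaf rust pustules 7 days after a 24 h, 20° saturated-humidity incubation of seedlings inoculated with P. recondita var. tritici spores. Inoculation followed by one day a run-off spray of 100 ppm compound in water containing 6% acetone and 250 ppm TREM 014.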

[2] = system: Erysiphe cichoracearum; test: Cucumber powdery mildew control on sprayed cucumber seedlings (Example 80); type: in vivo; conditions: Golovinomyces cichoracearum, 168 h, 100 ppm spray, day before inoculation
[3] = system: Venturia inaequalis; test: Apple scab control on sprayed apple seedlings (Example 82); type: in vivo; conditions: Venturia inaequalis, 100 ppm spray, day before inoculation
[4] = system: Helminthosporium maydis; test: Southern corn leaf blight control on sprayed corn seedlings (Example 83); type: in vivo; conditions: Bipolaris maydis, 192 h, 100 ppm spray, day before inoculation
In short: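 Corn seedlings were sprayed to run-off with 100 ppm suspensions (6% acetone, 250 ppm TREM 014) and spore-inoculated the following day. Disease and growth reduction were rated after 24 h saturated humidity at 20° plus 7 days in a growth room.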

[5] = system: Cercospora arachidicola; test: Peanut early leafspot control on sprayed peanut seedlings (Example 84); type: in vivo; conditions: Mycosphaerella arachidis, 360 h, 100 ppm spray, day before inoculation; read-out: % Control Peanut Easly Leafspot
[6] = system: Monilinia fructicola; test: Stone fruit brown rot control on dipped canned peach halves (Example 86); conditions: 120 h, 100 ppm dip, percent growth inhibition of colonies after five days
From the text: Several compounds of the previous examples were again dissolved in acetone in an amount equal to 5% of the final volume and then suspended at a concentration of 100 ppm in purified water containing 700 ppm of the surfactant TREM 014 (polyhydric alcohol esters). Canned peach halves were dipped in this suspension for three minutes and then placed to air dry in sterile containers. Upon drying, the peach halves were inoculated with two pieces of Monilinia fructicola mycelium, causal agent of stone fruit brown rot, and incubated in the sterile containers for five days. At that time the radii of the colonies' growth were measured on each peach. […] Percent disease control (percent growth inhibition of colonies on treated peaches as compared to that of colonies on untreated peaches) is expressed in the table below.

[7] = system: Rhizoctonia solani; test: Rice sheath blight control on sprayed rice seedlings (Example 87); type: in vivo; conditions: Rhizoctonia solani, 168 h, 100 ppm spray, day before inoculation
In short: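 Disease ratings followed 7 days' growth-room incubation of seedlings given a bran/R. solani mycelium inoculum. Inoculation took place one day after spraying to run-off. The spray was a 100 ppm compound suspension in water containing 6% acetone and 250 ppm TREM 014.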

[8] = system: Pyricularia oryzae; test: whole plant or invertebrate; type: in vivo; conditions: Pyricularia oryzae, 168 h, read-out: % Control of Rice Blast, 100 ppm spray, day before inoculation
[9] = system: Phytophthora infestans; test: whole plant or invertebrate; type: in vivo; conditions: Phytophthora infestans, in Solanum lycopersicum, 168 h, read-out: % Control of Tomato Late Blight, 100 ppm spray, day before inoculation
[10] = system: Pythium aphanadermatum; test: Pythium control on cotton, seed coating (Example 91); type: in vivo; conditions: 168 h, 2 gm/kg seed
From the text: Several compounds of the previous examples were incorporated into a proprietary formulation and used to coat cotton seeds at a rate of 2 gm/kg seed. After being thoroughly coated, the seeds were allowed to air dry at room temperature. The cotton seeds were then planted into soil amended with the fungus Pythium aphanadermatum, sand, and corn meal at a rate sufficient to kill most untreated seeds. The seeds were held at room temperature for 1 week, after which time disease ratings were made.

[11] = system: Pythium aphanadermatum; test: Pythium control on corn, seed coating (Example 92); type: in vivo; conditions: 504 h, 2 gm/kg seed
Method: Several compounds of the previous examples were incorporated into a proprietary formulation and used to coat corn seeds at a rate of 2 gm/kg seed. After being thoroughly coated, the seeds were allowed to air dry at room temperature. The seeds were then planted into soil amended with a mixture of the fungus Pythium aphanadermatum, sand, and corn meal at a rate sufficient to kill most untreated seeds. The seeds were held at 49° F. for 2 weeks and then at 70° F. for 1 additional week. After this time disease ratings were made.

[12] = system: Erysiphe graminis; test: Barley powdery mildew control on sprayed barley seedlings (Example 81); type: in vivo; conditions: Blumeria graminis, 168 h; 100 ppm spray, day before inoculation
Method: The compounds of the previous examples were again dissolved in acetone in an amount equal to 6% of the final volume and then suspended at a concentration of 100 ppm in purified water containing 250 ppm of the surfactant TREM 014 (polyhydric alcohol esters). These suspensions were sprayed to the point of run-off on barley seedlings. The following day, the plants were inoculated with a spore suspension of the fungus Erysiphe graminis, causal agent of barley powdery mildew, and incubated in growth room for 7 days. Disease ratings were then made. Treated plants from successful treatments had little or no powdery mildew in contrast to untreated plants which were covered with powdery mildew.

[13] = system: cucumber seedlings; test: Phytotoxicity on cucumber seedlings (Example 80); type: in vivo; design: key: G = growth reduction; H = hormonal effects; conditions: 100 ppm spray
Method: The compounds of the previous example were again dissolved in acetone in an amount equal to 6% of the final volume and then suspended at a concentration of 100 ppm in purified water containing 250 ppm of the surfactant TREM 014 (polyhydric alcohol esters). These suspensions were sprayed to the point of run-off, on cucumber seedlings. The following day, the plants were inoculated with a spore suspension of the fungus Erysiphe cichoracearum, causal agent of cucumber powdery mildew, and incubated in a growth room for 7 days. Disease ratings were then made. Treated plants from successful treatments had little or no powdery mildew in contrast to untreated plants which were covered with powdery mildew. Phytotoxicity in the form of growth reduction or hormonal effects was observed on some of the plants in association with disease control.

SMILES	pest or weed control at 100 ppm [1]	pest or weed control at 100 ppm [2]	pest or weed control at 100 ppm [3]	pest or weed control at 100 ppm [4]	pest or weed control at 100 ppm [5]	inhibition of growth at 100 µg/mL [6]	pest or weed control at 100 ppm [7]	pest or weed control at 100 ppm [8]	pest or weed control at 100 ppm [9]	pest or weed control at 2 g/kg seed [10]	pest or weed control at 2 g/kg seed [11]	pest or weed control at 100 ppm [12]	Phytotoxicity on cucumber [13]
CCCC[Si](C)(Cn1cncn1)c1ccc(-c2ccccc2)cc1 (centres unmarked) [(1,1'-Biphenyl-4-yl)butyl(methyl)(1H-1,2,4-triazol-1-ylmethyl)silane]	90%	100%	80%	50%	100%	0%	80%	100%	0%				
C[Si](C)(Cn1cncn1)c1ccc(-c2ccccc2)cc1 [(1,1'-Biphenyl-4-yl)dimethyl(1H-1,2,4-triazol-1-ylmethyl)silane]	100%	100%	100%	90%	100%	100%				12%	30%		
C[Si](C)(Cn1cnnc1)c1ccc(-c2ccccc2)cc1 [(1,1'-Biphenyl-4-yl)dimethyl(4H-1,2,4-triazol-4-ylmethyl)silane]	0%	90%	80%	100%	0%	96%	0%	0%	0%			0%	
C[Si](Cn1cncn1)(c1ccccc1)c1ccc(-c2ccccc2)cc1 (centres unmarked) [(1,1'-Biphenyl-4-yl)methyl(phenyl)(1H-1,2,4-triazol-1-ylmethyl)silane]	100%	100%	100%	90%	100%		0%	0%	0%	0%	0%		
c1ccc([Si](Cn2cncn2)(c2ccccc2)c2ccccc2)cc1 [(1H-1,2,4-Triazol-1-ylmethyl)triphenylsilane]	0%	100%	0%	0%	0%		0%	0%	0%			100%	
CCCC[Si](C)(Cn1cncn1)c1ccc(F)cc1 (centres unmarked) [Butyl(4-fluorophenyl)methyl(1H-1,2,4-triazol-1-ylmethyl)silane]	0%	100%	100%	0%	0%	100%	80%	100%	0%	0%	0%		
CCCC[Si](C)(CCCC)Cn1cncn1 [Dibutyl(methyl)(1H-1,2,4-triazol-1-ylmethyl)silane]	0%	0%	0%	0%	0%	81%	0%	80%	0%				
COc1ccc([Si](C)(C)Cn2cncn2)cc1 [Dimethyl(4-methoxyphenyl)(1H-1,2,4-triazol-1-ylmethyl)silane]	0%	100%	100%	90%	0%	97%	0%	0%	0%	0%		100%	
C[Si](C)(Cn1cncn1)c1ccccc1 [Dimethyl(phenyl)(1H-1,2,4-triazol-1-ylmethyl)silane]	90%	100%	0%	0%	0%	89%		0%	0%	0%			
CC[Si](C)(C)Cn1cncn1 [Ethyldimethyl(1H-1,2,4-triazol-1-ylmethyl)silane]	0%	100%	0%	0%	0%			0%	0%	48%	13%		
C[Si](Cn1cncn1)(c1ccc(-c2ccccc2)cc1)c1ccc(-c2ccccc2)cc1 [bis(1,1'-Biphenyl-4-yl)(methyl)(1H-1,2,4-triazol-1-ylmethyl)silane]	80%	100%	0%	0%	80%		90%	100%	0%	0%			
O[Si](Cn1cncn1)(c1ccc(Cl)cc1)c1ccc(Cl)cc1 [bis(4-Chlorophenyl)hydroxy(1H-1,2,4-triazol-1-ylmethyl)silane]	90%	100%	100%	90%	100%		0%	0%	0%				H
O[Si](Cn1cncn1)(c1ccc(F)cc1)c1ccc(F)cc1 [bis(4-Fluorophenyl)hydroxy(1H-1,2,4-triazol-1-ylmethyl)silane]	90%	100%	100%	100%	100%		0%	0%	0%				H
